Assay results reported in patent US12180207B2 (ARRAY BIOPHARMA INC., priority 2018, dated 2024).

What was measured:
[1] = target: recombinant human FGFR1 catalytic domain (amino acids 308-731) (Homo sapiens (Human), UniProt P11362); experiment: FGFR1 enzyme activity assay (LanthaScreen TR-FRET); format: biochemical; conditions: 20 min incubation at 22° C., average of multiple determinations if made, read-out: FGFR1 Enz FRET IC50
In short: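 His-tagged FGFR1 kinase domain with 100 nM Alexa Fluor 647-poly-GT peptide and ATP in pH 7.5 HEPES/MgCl2 buffer with 2% DMSO, 20 min at 22 °C. Quenched with EDTA plus 2 nM Eu-PY20 antibody and read after 60 min. IC50 comes from a 4-parameter fit of percent of control.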

[2] = target: recombinant human FGFR2 cytoplasmic domain (amino acids 403-822) (Homo sapiens (Human), UniProt P21802); experiment: FGFR2 enzyme activity assay (LanthaScreen TR-FRET); format: biochemical; conditions: 15 μM ATP, 20 min incubation at 22° C., average of multiple determinations if made, read-out: FGFR2 Enz FRET IC50
Chain of recombinant human FGFR2 cytoplasmic domain (amino acids 403-822) (P21802 402-821): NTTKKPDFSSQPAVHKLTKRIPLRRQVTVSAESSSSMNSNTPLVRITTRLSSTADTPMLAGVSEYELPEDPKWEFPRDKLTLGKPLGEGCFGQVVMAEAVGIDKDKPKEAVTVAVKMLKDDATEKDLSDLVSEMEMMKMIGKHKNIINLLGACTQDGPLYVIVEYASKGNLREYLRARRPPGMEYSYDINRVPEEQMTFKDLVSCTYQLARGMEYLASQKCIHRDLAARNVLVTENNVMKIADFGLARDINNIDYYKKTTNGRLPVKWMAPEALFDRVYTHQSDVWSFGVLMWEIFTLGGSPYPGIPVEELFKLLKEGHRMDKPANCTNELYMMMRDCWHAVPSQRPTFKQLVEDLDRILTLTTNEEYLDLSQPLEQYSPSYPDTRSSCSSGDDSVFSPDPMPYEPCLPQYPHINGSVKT
In short: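 His-tagged FGFR2 cytoplasmic domain ([…]) with 100 nM Alexa Fluor 647-poly-GT peptide and 15 μM ATP in HEPES/MgCl2/Triton buffer, pH 7.5, 2% DMSO, 20 min at 22 °C. EDTA-quenched, Eu-PY20 antibody added, TR-FRET read after 60 min.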

dephosphorylated FGFR2 = dephosphorylated FGFR2 (Homo sapiens (Human), UniProt P21802); experiment: FGFR enzyme binding assay (HTRF tracer displacement), FGFR2; conditions: 5 nM dephosphorylated FGFR2, average of multiple determinations if made
Chain of dephosphorylated FGFR2 (P21802 22-821): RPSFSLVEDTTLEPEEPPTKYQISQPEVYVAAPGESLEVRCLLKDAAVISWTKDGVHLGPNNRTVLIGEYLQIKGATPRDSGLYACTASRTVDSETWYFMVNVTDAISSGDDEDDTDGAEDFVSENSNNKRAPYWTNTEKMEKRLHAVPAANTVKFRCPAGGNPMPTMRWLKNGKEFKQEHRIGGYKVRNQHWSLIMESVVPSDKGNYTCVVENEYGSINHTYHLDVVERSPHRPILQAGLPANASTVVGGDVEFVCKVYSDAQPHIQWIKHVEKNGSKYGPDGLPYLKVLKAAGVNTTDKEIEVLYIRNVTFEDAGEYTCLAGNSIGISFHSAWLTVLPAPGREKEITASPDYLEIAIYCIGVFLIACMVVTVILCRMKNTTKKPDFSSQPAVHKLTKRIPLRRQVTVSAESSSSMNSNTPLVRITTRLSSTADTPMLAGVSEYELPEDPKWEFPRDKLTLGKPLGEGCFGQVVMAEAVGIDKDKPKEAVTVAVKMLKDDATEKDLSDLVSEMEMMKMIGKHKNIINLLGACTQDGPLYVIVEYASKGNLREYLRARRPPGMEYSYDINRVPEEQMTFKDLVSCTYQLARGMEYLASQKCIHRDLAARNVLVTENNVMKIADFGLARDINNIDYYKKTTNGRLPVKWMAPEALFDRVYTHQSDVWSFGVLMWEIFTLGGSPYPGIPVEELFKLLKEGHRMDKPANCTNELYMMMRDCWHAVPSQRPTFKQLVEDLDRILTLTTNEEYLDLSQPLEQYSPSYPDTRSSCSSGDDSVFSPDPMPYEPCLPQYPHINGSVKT
Procedure: The potency of compounds inhibiting human isoforms of FGFR kinase was determined using Life Technologies' Homogeneous Time Resolved Fluorescence (HTRF)-based binding assay technology. […] After a 60 minute incubation at 22° C., the extent of tracer displacement was determined using a PerkinElmer EnVision multimode plate reader via HTRF dual wavelength detection, and the percent of control (POC) was calculated using a ratiometric emission factor. One hundred POC was determined using no test compound, and 0 POC was determined in the presence of 1 μM of an appropriate control inhibitor.

[3] = target: recombinant human FGFR3 (amino acids R397-T806) (Homo sapiens (Human), UniProt P22607); experiment: FGFR3 enzyme activity assay (LanthaScreen TR-FRET); format: biochemical; conditions: 25 μM ATP, 10 min incubation at 22° C., average of multiple determinations if made, read-out: FGFR3 Enz FRET IC50
Chain of recombinant human FGFR3 (amino acids R397-T806) (P22607 397-806): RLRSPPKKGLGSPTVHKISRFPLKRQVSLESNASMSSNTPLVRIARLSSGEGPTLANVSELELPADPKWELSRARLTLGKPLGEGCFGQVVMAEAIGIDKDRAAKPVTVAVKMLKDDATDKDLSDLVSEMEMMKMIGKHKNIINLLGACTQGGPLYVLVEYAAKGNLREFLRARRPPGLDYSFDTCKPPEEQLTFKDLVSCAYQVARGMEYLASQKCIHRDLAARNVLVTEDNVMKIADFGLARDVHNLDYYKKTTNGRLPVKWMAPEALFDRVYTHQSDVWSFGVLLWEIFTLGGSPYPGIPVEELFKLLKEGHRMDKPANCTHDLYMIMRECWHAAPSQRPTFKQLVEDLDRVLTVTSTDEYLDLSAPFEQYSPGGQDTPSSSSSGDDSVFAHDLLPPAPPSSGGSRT
In short: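 GST-HIS6-tagged human FGFR3 (R397-T806) was reacted with 100 nM Alexa Fluor 647-Poly-GT substrate and 25 μM ATP plus compound in HEPES/MgCl2/Triton buffer, pH 7.5, 2% DMSO, for 10 min at 22 °C.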

Chain of recombinant human FGFR1 catalytic domain (amino acids 308-731) (P11362 other isoform, or with tags, fused parts or gaps): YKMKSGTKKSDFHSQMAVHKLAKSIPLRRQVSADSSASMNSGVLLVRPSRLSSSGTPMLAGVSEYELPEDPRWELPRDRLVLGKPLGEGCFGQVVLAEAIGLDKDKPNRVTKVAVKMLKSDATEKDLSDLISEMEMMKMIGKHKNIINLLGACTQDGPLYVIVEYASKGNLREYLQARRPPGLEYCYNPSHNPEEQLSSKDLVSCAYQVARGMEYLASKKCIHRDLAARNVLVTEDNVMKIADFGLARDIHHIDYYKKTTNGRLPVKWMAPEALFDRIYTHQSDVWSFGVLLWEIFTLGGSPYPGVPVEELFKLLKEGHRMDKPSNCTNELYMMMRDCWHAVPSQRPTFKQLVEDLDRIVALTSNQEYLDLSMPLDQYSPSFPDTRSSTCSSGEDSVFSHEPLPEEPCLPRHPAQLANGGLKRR

IC50 [1]	IC50 [2]	IC50 (dephosphorylated FGFR2)	IC50 [3]	SMILES
842 nM	324 nM	155 nM	103 nM	C=CC(=O)N1CC(OC)(C(=O)N2CCC(n3nc(C)c(-c4cc(OC)c5c(C#N)cnn5c4)c3C)CC2)C1 [Example 95, 6-(1-(1-(1-acryloyl-3-methoxyazetidine-3-carbonyl)piperidin-4-yl)-3,5-dimethyl-1H-pyrazol-4-yl)-4-methoxypyrazolo[1,5-a]pyridine-3-carbonitrile]
38 nM	11 nM	22 nM	22 nM	C=CC(=O)N1CC(C(=O)N2CCC3(CC2)CN(c2ccc(-c4cc(OC)c5c(C#N)cnn5c4)cn2)C3)C1 [Example 102, 6-(6-(7-(1-acryloylazetidine-3-carbonyl)-2,7-diazaspiro[3.5]nonan-2-yl)pyridin-3-yl)-4-methoxypyrazolo[1,5-a]pyridine-3-carbonitrile]
49 nM	10 nM	39 nM	20 nM	C=CC(=O)N1CC(C(=O)N2CCC3(C2)CN(c2ccc(-c4cc(OC)c5c(C#N)cnn5c4)cn2)C3)C1 [Example 103, 6-(6-(6-(1-acryloylazetidine-3-carbonyl)-2,6-diazaspiro[3.4]octan-2-yl)pyridin-3-yl)-4-methoxypyrazolo[1,5-a]pyridine-3-carbonitrile]
63 nM	20 nM	45 nM	20 nM	C=CC(=O)N1CC(C(=O)N2CC3(C2)CN(c2ccc(-c4cc(OC)c5c(C#N)cnn5c4)cn2)C3)C1 [Example 104, 6-(6-(6-(1-acryloylazetidine-3-carbonyl)-2,6-diazaspiro[3.3]heptan-2-yl)pyridin-3-yl)-4-methoxypyrazolo[1,5-a]pyridine-3-carbonitrile]
61 nM	11 nM	30 nM	25 nM	C=CC(=O)N1CC(C(=O)N2C[C@@H]3C[C@H]2CN3c2ccc(-c3cc(OC)c4c(C#N)cnn4c3)cn2)C1 [Example 106, 6-(6-((1S,4S)-5-(1-acryloylazetidine-3-carbonyl)-2,5-diazabicyclo[2.2.1]heptan-2-yl)pyridin-3-yl)-4-methoxypyrazolo[1,5-a]pyridine-3-carbonitrile]
68 nM	9 nM	56 nM	27 nM	C=CC(=O)N1CC(C(=O)N2C[C@H]3C[C@@H]2CN3c2ccc(-c3cc(OC)c4c(C#N)cnn4c3)cn2)C1 [Example 107, 6-(6-((1R,4R)-5-(1-acryloylazetidine-3-carbonyl)-2,5-diazabicyclo[2.2.1]heptan-2-yl)pyridin-3-yl)-4-methoxypyrazolo[1,5-a]pyridine-3-carbonitrile]
20 nM	7 nM	28 nM	10 nM	C=CC(=O)N1CC(CN2C[C@H]3C[C@@H]2CN3c2ccc(-c3cc(OC)c4c(C#N)cnn4c3)cn2)C1 [Example 108, 6-(6-((1R,4R)-5-((1-acryloylazetidin-3-yl)methyl)-2,5-diazabicyclo[2.2.1]heptan-2-yl)pyridin-3-yl)-4-methoxypyrazolo[1,5-a]pyridine-3-carbonitrile]
21 nM	9 nM	16 nM	20 nM	C=CC(=O)N1CC(F)(C(=O)N2CCN(c3ccc(-c4cc(OC)c5c(C#N)cnn5c4)cn3)CC2)C1 [Example 112, 6-(6-(4-(1-acryloyl-3-fluoroazetidine-3-carbonyl)piperazin-1-yl)pyridin-3-yl)-4-methoxypyrazolo[1,5-a]pyridine-3-carbonitrile]
789 nM	359 nM	103 nM	43 nM	C=CC(=O)N1CC(OC)(C(=O)N2CCC(n3ncc(-c4cc(OC)c5c(Cl)cnn5c4)c3C)CC2)C1 [Example 117, 1-(3-(4-(4-(3-chloro-4-methoxypyrazolo[1,5-a]pyridin-6-yl)-5-methyl-1H-pyrazol-1-yl)piperidine-1-carbonyl)-3-methoxyazetidin-1-yl)prop-2-en-1-one]
551 nM	239 nM	56 nM	41 nM	C=CC(=O)N1CC(CN2CCC(n3ncc(-c4cc(OC)c5c(Cl)cnn5c4)c3C)CC2)C1 [Example 118, 1-(3-((4-(4-(3-chloro-4-methoxypyrazolo[1,5-a]pyridin-6-yl)-5-methyl-1H-pyrazol-1-yl)piperidin-1-yl)methyl)azetidin-1-yl)prop-2-en-1-one]
12 nM	2 nM		2 nM	COc1cc(-c2cnn(C3CCN(CC4CN(C(=O)/C=C/CN(C)C)C4)CC3)c2)cn2ncc(C#N)c12 [Example 146, (E)-6-(1-(1-((1-(4-(dimethylamino)but-2-enoyl)azetidin-3-yl)methyl)piperidin-4-yl)-1H-pyrazol-4-yl)-4-methoxypyrazolo [1,5-a]pyridine-3-carbonitrile]
156 nM	80 nM		83 nM	COc1cc(-c2cnc(N3CCN(C(=O)C4(F)CN(C(=O)/C=C/CN(C)C)C4)CC3)cc2C)cn2ncc(C#N)c12 [Example 169, (E)-6-(6-(4-(1-(4-(dimethylamino)but-2-enoyl)-3-fluoroazetidine-3-carbonyl)piperazin-1-yl) -4-methylpyridin-3-yl)-4-methoxypyrazolo [1,5-a]pyridine-3-carbonitrile]
16 nM	6 nM		4 nM	COc1cc(-c2cnn(C3CCN(C(=O)C4CN(C(=O)/C=C/CN(C)C)C4)CC3)c2)cn2ncc(Cl)c12 [Example 174]
4 nM	10 nM		5 nM	COc1cc(-c2cnn(C3CCN(CC4CN(C(=O)/C=C/CN5CCCCC5)C4)CC3)c2)cn2ncc(C#N)c12 [Example 175, (E)-4-methoxy-6-(1-(1-((1-(4-(piperidin-1-yl)but-2-enoyl)azetidin-3-yl)methyl)piperidin-4-yl)-1H-pyrazol-4-yl)pyrazolo[1,5-a]pyridine-3-carbonitrile]
14 nM	5 nM		12 nM	C=CC(=O)N(C)c1ccc(C(=O)N2CCC(n3cc(-c4cc(OC)c5c(C#N)cnn5c4)cn3)CC2)cc1 [Example 178, N-(4-(4-(4-(3-cyano-4-methoxypyrazolo[1,5-a]pyridin-6-yl)-1H-pyrazol-1-yl)piperidine-1-carbonyl)phenyl)-N-methylacrylamide]
5 nM	8 nM		5 nM	C=CS(=O)(=O)N1CCC(C(=O)N2CCC(n3cc(-c4cc(OC)c5c(C#N)cnn5c4)cn3)CC2)CC1 [Example 186, 4-methoxy-6-(1-(1-(1-(vinylsulfonyl)piperi-dine-4-carbonyl)piperidin-4-yl)-1H-pyrazol-4-yl)pyrazolo[1,5-a]pyridine-3-carbonitrile]

SMILES	IC50 [1]	IC50 [2]	IC50 (dephosphorylated FGFR2)	IC50 [3]
C=CC(=O)N1CC(C(=O)N2CC3CC(C2)N3c2ccc(-c3cc(OC)c4c(C#N)cnn4c3)cn2)C1 [Example 105, 6-(6-(3-(1-acryloylazetidine-3-carbonyl)-3,6-diazabicyclo[3.1.1]heptan-6-yl)pyridin-3-yl)-4-methoxypyrazolo[1,5-a]pyridine-3-carbonitrile]	193 nM	42 nM	226 nM	125 nM
